Experimental data reported in US20250332108A1 (Veradermics, Incorporated, priority 2024, published 2025).
Where two headings read alike, the source gives them in different places.

How the values were obtained:
subjects with hair loss = conditions: cited from earlier work
hypertensive patients = conditions: intravenous infusion; cited from earlier work
[1] = tested on: person with androgenetic alopecia; assay: Case studies: oral minoxidil in males with androgenetic alopecia (blood pressure, heart rate, hair growth)
Chinese hamster cells = Chinese hamster cells at long exposure times; cited from earlier work
mice = conditions: dietary, cited from earlier work
[2] = cited from earlier work; for Duration plasma concentrations above 20 ng/ml: immediate release
rabbits = conditions: cited from earlier work
[3] = cited from earlier work
Salmonella = Salmonella (Ames) test; cited from earlier work
human lymphocytes = conditions: cited from earlier work
mouse bone marrow = mouse bone marrow micronucleus assay; cited from earlier work
male adults with AGA = conditions: 5 mg oral at bedtime, cited from earlier work
rat hepatocyte = conditions: in vitro rat hepatocyte unscheduled DNA synthesis assay; cited from earlier work
dogs = conditions: short-term administration 0.5 mg to 10 mg/kg/day; cited from earlier work
rat bone marrow = rat bone marrow micronucleus assay; cited from earlier work
rats [4] = conditions: cited from earlier work
patients = conditions: cited from earlier work
rats [5] = conditions: cited from earlier work; remark: listed apart in the source
[6] = oral, dose level 2.5 mg, healthy volunteers
[7] = oral, dose level 5 mg, healthy volunteers
[8] = oral, dose level 10 mg, healthy volunteers

For Nc1cc(N2CCCCC2)nc(N)[n+]1[O-] [Minoxidil], the “Serious adverse events (SAEs) reported” value (subjects with hair loss; topical foam 5% versus topical solution 2% in female pattern hair loss, 322 subjects, NCT01145625) is listed as “Ten serious adverse events (SAEs) were reported”, the “SAEs reported in subjects treated with minoxidil” value (subjects with hair loss; topical foam 5% versus vehicle topical foam, 404 subjects, NCT01226459) is listed as “Six SAEs were reported” and the “Steady state plasma concentrations associated with significant (>5 beats per minute) changes in heart rate” value (hypertensive patients) is listed as “above 20 ng/mL”. For the same compound, the Adverse events ([1]; 0.625 mg four times a day) was “No unwanted hair growth or other adverse events were noticed”, the “Effect on blood pressure” value ([1]; 0.625 mg four times a day) was “did not experience significant reductions in blood pressure” and the Adverse events ([1]; 1.25 mg QID) was “No unwanted hair growth or other adverse events, including any cardiac effects, were noticed”. The Cytogenetic assay result (Chinese hamster cells) was “equivocal result”, the “Incidence of hepatic nodules” value (mice; up to 2 years, 63 mg/kg/day) was “increased incidence of hepatic nodules in males” and the “Incidence of malignant lymphomas” value (mice; up to 2 years, 10, 25, and 63 mg/kg/day) was “increased incidence of malignant lymphomas in females at all dose levels”. The “Dose dependence of PK and urinary excretion” value ([2]; 2.5 mg, 5 mg, or 10 mg oral, healthy volunteers) was “dose-independent PK”, the “Effect on blood pressure” value ([2]; 2.5 mg, 5 mg, or 10 mg oral, normotensive subjects) was “little effect on blood pressure in normotensive subjects” and the “Duration plasma concentrations above 20 ng/ml” value ([2]; 5 mg dose level) was “around 1 h”. For the same compound, the “Duration plasma concentrations above 20 ng/ml” value ([2]; 10 mg dose level) was “around 2 h”, the Observed half-life ([2]; immediate release formulation, oral) was “around 1 h” and the “AUC(last)” value [2, 6] was 25.3 ng·h/mL. For the same compound, the Cmax [2, 6] was 16.8 ng/mL, the T1/2 [2, 6] was 64.2 min and the Tmax [2, 6] was 34 min. The “AUC(last)” value [2, 7] was 55.1 ng·h/mL, the Cmax [2, 7] was 37.2 ng/mL and the T1/2 [2, 7] was 76.2 min. For the same compound, the Tmax [2, 7] was 23.3 min, the “AUC(last)” value [2, 8] was 112 ng·h/mL and the Cmax [2, 8] was 74.7 ng/mL. For the same compound, the T1/2 [2, 8] was 80.4 min, the Tmax [2, 8] was 25.1 min and the Fetal resorption (rabbits; 5 times the maximum recommended oral antihypertensive human dose) was “increased fetal resorption”. For the same compound, the Teratogenic effects (rabbits) was “no evidence of teratogenic effects”, the “Predominant metabolite in urine” value ([3]; first 12 h, hypertensive patients) was “A glucuronide conjugate” and the Renal clearance ([3]; human, in vivo) was 73.3 mL/min. The “Radioactivity found in feces” value ([3]; hypertensive patients) was 3%, the “Total radioactivity recovered from urine” value ([3]; hypertensive patients) was 97% and the “Time to peak plasma levels” value ([3]; oral) was ≤ 1 h. The “Fraction of oral minoxidil metabolized” value ([3]; primarily by conjugation with glucuronic acid) was “About 90%”, the “Radiolabeled minoxidil and metabolites recovered from urine” value ([3]; within 24 h after oral administration, hypertensive patients) was “Over 80%” and the Mutagenicity (Salmonella) was “not mutagenic”. The Cytogenetic assay result (human lymphocytes) was “negative”, the Mutagenicity (mouse bone marrow) was “not mutagenic” and the Subjects reporting edema (male adults with AGA; 24 week follow up, 34 subjects) was 2.9%. The Subjects reporting headache (male adults with AGA; 24 week follow up, 34 subjects) was 20.6%, the Subjects reporting vertigo (male adults with AGA; 24 week follow up, 34 subjects) was 2.9% and the Subjects reporting hypertrichosis (male adults with AGA; 24 weeks, 34 subjects) was 55.9%. The Adverse cardiovascular outcomes (male adults with AGA; 24 weeks) was “No adverse cardiovascular outcomes were observed”, the Mutagenicity (rat hepatocyte) was “not mutagenic” and the Cardiac lesions (dogs) was “various cardiac lesions have been found”. The Mutagenicity (rat bone marrow) was “not mutagenic”, the Carcinogenicity (rats [4]; doses 15 times the usual human dosage for 22 months) was “No evidence of carcinogenicity” and the Carcinogenicity findings (rats [4]; oral administration, two-year study) was “no positive findings”. The “Temporary decrease in hematocrit, hemoglobin, and erythrocyte count (hemodilution)” value (patients; chronic therapy for severe hypertension, initially) was “approximately 7%”, the “Patients in whom hypertrichosis was hardly or not at all tolerable” value (patients; human, in vivo) was “less than 10%” and the “Plasma concentrations above which hemodynamic effects are typically seen” value (patients; human, in vivo) was > 20 ng/mL. For the same compound, the “Patients exhibiting ECG alterations in direction and magnitude of T waves” value (patients; soon after starting therapy) was “approximately 60%”, the Fetal resorption (rats [5]) was “not seen” and the Teratogenic effects (rats [5]) was “no evidence of teratogenic effects”.
